Assay results reported in the kinase profiling compilation of Christmann-Franck et al. (2016).

Legend:
Assay in all cases: KINOMEscan competition binding
Conditions in all cases: compound 1.0 µM
[1] = molecular target: ACVRL1 (human) (UniProt P37023)
[2] = molecular target: AKT2 (human) (UniProt P31751)
[3] = molecular target: AKT3 (human) (UniProt Q9Y243)
[4] = molecular target: AURKB (human) (UniProt Q96GD4)
[5] = molecular target: CAMKK1 (human) (UniProt Q8N5S9)
[6] = molecular target: CDKL1 (human) (UniProt Q00532)
[7] = molecular target: CSK (human) (UniProt P41240)
[8] = molecular target: DSTYK (human) (UniProt Q6XUX3)
[9] = test system: EGFR (human), P00533 [A750P; 747-749 del]
[10] = test system: EGFR (human), P00533 [T790M/L858R]
[11] = molecular target: EPHA5 (human) (UniProt P54756)
[12] = molecular target: EPHB2 (human) (UniProt P29323)
[13] = molecular target: IGF1R (human) (UniProt P08069)
[14] = molecular target: INSRR (human) (UniProt P14616)
[15] = molecular target: IRAK3 (human) (UniProt Q9Y616)
[16] = molecular target: JAK2 JH1 catalytic (human) (UniProt O60674)
[17] = molecular target: JAK3 JH1 catalytic (human) (UniProt P52333)
[18] = molecular target: MAP2K3 (human) (UniProt P46734)
[19] = molecular target: MAP3K13 (human) (UniProt O43283)
[20] = molecular target: MAPK1 (human) (UniProt P28482)
[21] = molecular target: MAPK7 (human) (UniProt Q13164)
[22] = molecular target: MARK3 (human) (UniProt P27448)
[23] = molecular target: MST1R (human) (UniProt Q04912)
[24] = molecular target: MTOR (human) (UniProt P42345)
[25] = molecular target: PHKG2 (human) (UniProt P15735)
[26] = test system: PIK3CA (human), P42336 [E542K]
[27] = test system: PIK3CA (human), P42336 [E545A]
[28] = molecular target: PIK3CD (human) (UniProt O00329)
[29] = molecular target: PIM1 (human) (UniProt P11309)
[30] = molecular target: PRKCE (human) (UniProt Q02156)
[31] = molecular target: PRKG2 (human) (UniProt Q13237)
[32] = molecular target: PRPF4B (human) (UniProt Q13523)
[33] = molecular target: PTK2B (human) (UniProt Q14289)
[34] = molecular target: SRC (human) (UniProt P12931)
[35] = molecular target: STK32B (human) (UniProt Q9NY57)
[36] = molecular target: STK32C (human) (UniProt Q86UX6)
[37] = molecular target: TAOK2 (human) (UniProt Q9UL54)
[38] = molecular target: TESK1 (human) (UniProt Q15569)
[39] = molecular target: TRPM6 (human) (UniProt Q9BX84)

Sequence of IRAK3 (human) (Q9Y616 whole entry, looked up): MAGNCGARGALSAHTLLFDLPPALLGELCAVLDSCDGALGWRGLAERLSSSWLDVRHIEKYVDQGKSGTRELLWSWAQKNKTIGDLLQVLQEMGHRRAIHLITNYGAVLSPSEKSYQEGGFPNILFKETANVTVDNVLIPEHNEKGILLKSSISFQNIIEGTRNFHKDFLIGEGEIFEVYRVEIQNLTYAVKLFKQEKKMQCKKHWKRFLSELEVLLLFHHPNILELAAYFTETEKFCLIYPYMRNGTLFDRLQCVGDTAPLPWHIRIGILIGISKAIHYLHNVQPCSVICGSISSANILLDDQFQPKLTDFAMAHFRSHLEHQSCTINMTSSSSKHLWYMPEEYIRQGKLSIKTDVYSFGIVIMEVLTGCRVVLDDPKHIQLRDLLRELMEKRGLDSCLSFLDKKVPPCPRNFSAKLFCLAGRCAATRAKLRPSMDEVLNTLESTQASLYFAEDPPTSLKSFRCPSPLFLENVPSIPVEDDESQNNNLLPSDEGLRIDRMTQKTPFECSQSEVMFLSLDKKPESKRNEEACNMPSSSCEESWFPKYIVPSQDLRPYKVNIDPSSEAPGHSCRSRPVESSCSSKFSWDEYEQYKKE
Sequence of MAPK1 (human) (P28482 whole entry, looked up): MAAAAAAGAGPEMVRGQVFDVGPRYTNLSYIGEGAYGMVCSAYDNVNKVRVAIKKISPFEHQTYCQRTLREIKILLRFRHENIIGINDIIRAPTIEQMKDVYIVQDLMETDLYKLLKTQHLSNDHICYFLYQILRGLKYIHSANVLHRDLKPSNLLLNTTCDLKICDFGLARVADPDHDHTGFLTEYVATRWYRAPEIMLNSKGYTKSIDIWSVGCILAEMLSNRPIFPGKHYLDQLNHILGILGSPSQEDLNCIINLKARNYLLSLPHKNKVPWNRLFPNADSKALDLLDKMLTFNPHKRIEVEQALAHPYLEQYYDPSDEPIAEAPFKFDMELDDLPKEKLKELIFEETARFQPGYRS
Sequence of PHKG2 (human) (P15735 whole entry, looked up): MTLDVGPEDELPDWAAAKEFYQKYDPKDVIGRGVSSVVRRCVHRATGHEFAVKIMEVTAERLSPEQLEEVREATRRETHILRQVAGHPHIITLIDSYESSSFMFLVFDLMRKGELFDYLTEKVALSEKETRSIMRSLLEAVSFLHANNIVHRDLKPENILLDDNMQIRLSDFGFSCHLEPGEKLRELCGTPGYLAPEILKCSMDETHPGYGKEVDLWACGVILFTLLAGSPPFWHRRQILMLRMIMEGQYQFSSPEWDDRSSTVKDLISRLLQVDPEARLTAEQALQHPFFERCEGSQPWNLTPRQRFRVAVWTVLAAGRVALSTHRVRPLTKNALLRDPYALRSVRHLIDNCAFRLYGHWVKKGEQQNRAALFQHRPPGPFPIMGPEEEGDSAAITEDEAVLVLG
Sequence of PIK3CD (human) (O00329 whole entry, looked up): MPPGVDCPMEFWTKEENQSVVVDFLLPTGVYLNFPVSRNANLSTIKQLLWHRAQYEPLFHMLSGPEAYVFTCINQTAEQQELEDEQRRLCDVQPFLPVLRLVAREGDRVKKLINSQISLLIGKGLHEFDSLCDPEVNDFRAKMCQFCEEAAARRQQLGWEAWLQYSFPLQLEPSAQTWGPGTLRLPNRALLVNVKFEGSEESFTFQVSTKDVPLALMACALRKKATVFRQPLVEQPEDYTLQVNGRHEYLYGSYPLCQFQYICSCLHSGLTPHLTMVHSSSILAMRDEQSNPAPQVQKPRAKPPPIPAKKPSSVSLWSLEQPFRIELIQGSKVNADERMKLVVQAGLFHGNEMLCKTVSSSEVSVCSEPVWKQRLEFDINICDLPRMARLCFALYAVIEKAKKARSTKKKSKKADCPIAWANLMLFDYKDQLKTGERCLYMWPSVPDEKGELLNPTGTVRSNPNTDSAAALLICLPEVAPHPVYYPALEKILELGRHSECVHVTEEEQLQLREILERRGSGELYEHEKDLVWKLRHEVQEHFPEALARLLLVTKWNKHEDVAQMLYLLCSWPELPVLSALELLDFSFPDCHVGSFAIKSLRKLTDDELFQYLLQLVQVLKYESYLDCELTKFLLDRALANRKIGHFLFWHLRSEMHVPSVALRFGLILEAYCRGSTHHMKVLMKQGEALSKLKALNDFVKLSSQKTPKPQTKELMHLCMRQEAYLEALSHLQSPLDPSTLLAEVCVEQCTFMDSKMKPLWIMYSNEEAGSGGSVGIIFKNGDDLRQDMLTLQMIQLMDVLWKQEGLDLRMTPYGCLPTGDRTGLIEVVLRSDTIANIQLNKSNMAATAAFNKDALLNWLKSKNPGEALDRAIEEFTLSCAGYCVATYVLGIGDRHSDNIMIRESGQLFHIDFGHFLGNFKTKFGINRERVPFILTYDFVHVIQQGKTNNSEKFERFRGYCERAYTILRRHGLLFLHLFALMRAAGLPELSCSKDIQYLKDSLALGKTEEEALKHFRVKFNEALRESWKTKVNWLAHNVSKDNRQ
Sequence of PIM1 (human) (P11309 whole entry, looked up): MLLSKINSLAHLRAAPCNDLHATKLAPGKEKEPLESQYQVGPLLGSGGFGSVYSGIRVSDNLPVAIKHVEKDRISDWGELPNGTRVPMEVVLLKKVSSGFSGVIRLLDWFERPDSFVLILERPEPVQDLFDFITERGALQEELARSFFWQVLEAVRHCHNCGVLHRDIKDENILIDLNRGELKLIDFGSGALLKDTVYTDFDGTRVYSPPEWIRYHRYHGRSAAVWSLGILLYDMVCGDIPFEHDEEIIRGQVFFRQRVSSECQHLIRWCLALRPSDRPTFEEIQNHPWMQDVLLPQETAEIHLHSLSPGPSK
Sequence of AKT3 (human) (Q9Y243 whole entry, looked up): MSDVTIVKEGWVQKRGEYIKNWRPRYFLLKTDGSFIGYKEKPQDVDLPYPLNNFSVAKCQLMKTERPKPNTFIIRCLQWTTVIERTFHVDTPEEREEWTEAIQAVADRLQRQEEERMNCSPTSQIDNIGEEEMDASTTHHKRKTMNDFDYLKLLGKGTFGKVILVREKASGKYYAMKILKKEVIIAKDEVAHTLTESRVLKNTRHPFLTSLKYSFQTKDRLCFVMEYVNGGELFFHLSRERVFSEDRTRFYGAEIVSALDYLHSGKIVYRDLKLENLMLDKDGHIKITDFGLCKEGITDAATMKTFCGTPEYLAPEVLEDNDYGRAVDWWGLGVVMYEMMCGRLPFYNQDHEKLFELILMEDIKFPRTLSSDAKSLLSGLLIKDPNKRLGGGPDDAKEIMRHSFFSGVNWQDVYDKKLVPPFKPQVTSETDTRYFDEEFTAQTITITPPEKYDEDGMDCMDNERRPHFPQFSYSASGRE
Sequence of IGF1R (human) (P08069 whole entry, looked up): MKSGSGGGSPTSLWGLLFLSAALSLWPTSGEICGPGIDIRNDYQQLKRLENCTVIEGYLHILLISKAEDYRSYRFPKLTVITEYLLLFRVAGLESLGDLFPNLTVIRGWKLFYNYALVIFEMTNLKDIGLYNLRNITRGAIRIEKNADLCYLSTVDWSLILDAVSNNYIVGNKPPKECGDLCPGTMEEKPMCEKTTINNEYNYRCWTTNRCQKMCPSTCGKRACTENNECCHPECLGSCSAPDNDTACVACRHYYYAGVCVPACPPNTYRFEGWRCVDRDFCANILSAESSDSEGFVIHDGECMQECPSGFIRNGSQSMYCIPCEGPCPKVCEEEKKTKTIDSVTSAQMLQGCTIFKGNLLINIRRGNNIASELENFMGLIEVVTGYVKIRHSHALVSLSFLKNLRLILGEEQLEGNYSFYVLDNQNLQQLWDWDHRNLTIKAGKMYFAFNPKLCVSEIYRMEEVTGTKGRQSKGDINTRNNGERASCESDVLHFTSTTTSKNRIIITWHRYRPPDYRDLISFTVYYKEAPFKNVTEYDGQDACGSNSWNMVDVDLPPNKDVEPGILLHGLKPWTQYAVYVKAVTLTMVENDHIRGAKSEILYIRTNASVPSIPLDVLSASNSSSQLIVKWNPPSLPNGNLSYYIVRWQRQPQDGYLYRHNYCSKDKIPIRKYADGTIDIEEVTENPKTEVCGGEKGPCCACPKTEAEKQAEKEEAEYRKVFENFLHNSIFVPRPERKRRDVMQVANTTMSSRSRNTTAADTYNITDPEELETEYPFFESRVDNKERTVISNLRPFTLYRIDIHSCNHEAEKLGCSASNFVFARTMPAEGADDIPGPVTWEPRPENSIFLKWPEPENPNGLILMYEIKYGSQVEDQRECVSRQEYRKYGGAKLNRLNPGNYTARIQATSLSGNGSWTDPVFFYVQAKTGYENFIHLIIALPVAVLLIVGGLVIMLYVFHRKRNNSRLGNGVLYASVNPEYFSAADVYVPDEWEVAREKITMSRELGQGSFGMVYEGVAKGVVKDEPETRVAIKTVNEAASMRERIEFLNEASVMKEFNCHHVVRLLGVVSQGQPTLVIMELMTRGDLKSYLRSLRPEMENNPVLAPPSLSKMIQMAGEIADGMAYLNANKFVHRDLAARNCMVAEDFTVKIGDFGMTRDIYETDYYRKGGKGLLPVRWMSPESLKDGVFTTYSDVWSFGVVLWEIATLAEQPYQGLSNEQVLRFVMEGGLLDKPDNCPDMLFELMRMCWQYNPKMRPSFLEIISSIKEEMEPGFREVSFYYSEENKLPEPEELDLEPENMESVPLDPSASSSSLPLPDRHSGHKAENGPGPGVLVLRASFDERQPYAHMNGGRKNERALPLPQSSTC
Sequence of CDKL1 (human) (Q00532 whole entry, looked up): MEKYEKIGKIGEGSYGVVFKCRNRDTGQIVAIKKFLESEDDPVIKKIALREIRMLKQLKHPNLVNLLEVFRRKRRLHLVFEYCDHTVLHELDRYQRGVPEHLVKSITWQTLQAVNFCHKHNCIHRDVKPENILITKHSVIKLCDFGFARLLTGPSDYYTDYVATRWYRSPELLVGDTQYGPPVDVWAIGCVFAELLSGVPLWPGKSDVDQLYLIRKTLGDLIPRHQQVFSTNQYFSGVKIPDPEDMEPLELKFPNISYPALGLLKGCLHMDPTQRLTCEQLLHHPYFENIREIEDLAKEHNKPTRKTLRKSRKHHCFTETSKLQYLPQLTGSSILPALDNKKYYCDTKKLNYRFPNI

Q: For CNc1nc(Nc2ccc(C(=O)N3CCOCC3)cc2OC)ncc1Cl, which kinase still bound, per cent of control [1] is on record?
A: The kinase still bound, per cent of control was 100%.

Q: What about the kinase still bound, per cent of control [2] of the same molecule?
A: Its kinase still bound, per cent of control is 100%.

Q: And the kinase still bound, per cent of control [3]?
A: Its kinase still bound, per cent of control is 81%.

Q: What about the kinase still bound, per cent of control [4] of the same molecule?
A: The kinase still bound, per cent of control was 100%.

Q: And the kinase still bound, per cent of control [5]?
A: Its kinase still bound, per cent of control is 79%.

Q: And the residual activity [6]?
A: The residual activity was 100%.

Q: And the kinase still bound, per cent of control [7]?
A: The kinase still bound, per cent of control was 100%.

Q: And the kinase still bound, per cent of control [8]?
A: The kinase still bound, per cent of control was 100%.

Q: What about the kinase still bound, per cent of control [9] of the same molecule?
A: Its kinase still bound, per cent of control is 100%.

Q: And the kinase still bound, per cent of control [10]?
A: The kinase still bound, per cent of control was 100%.

Q: And the kinase still bound, per cent of control [11]?
A: The kinase still bound, per cent of control was 100%.

Q: What about the kinase still bound, per cent of control [12] of the same molecule?
A: The kinase still bound, per cent of control was 100%.

Q: And the residual activity [13]?
A: Its residual activity is 100%.

Q: What about the kinase still bound, per cent of control [14] of the same molecule?
A: Its kinase still bound, per cent of control is 90%.

Q: What about the kinase still bound, per cent of control [15] of the same molecule?
A: Its kinase still bound, per cent of control is 88%.

Q: And the kinase still bound, per cent of control [16]?
A: Its kinase still bound, per cent of control is 100%.

Q: And the kinase still bound, per cent of control [17]?
A: The kinase still bound, per cent of control was 90%.

Q: What about the kinase still bound, per cent of control [18] of the same molecule?
A: Its kinase still bound, per cent of control is 93%.

Q: What about the kinase still bound, per cent of control [19] of the same molecule?
A: Its kinase still bound, per cent of control is 100%.

Q: What about the kinase still bound, per cent of control [20] of the same molecule?
A: The kinase still bound, per cent of control was 100%.

Q: And the kinase still bound, per cent of control [21]?
A: Its kinase still bound, per cent of control is 98%.

Q: And the kinase still bound, per cent of control [22]?
A: Its kinase still bound, per cent of control is 98%.

Q: And the kinase still bound, per cent of control [23]?
A: Its kinase still bound, per cent of control is 100%.

Q: And the kinase still bound, per cent of control [24]?
A: The kinase still bound, per cent of control was 100%.

Q: What about the kinase still bound, per cent of control [25] of the same molecule?
A: The kinase still bound, per cent of control was 58%.

Q: And the kinase still bound, per cent of control [26]?
A: The kinase still bound, per cent of control was 100%.

Q: And the kinase still bound, per cent of control [27]?
A: The kinase still bound, per cent of control was 68%.

Q: What about the kinase still bound, per cent of control [28] of the same molecule?
A: Its kinase still bound, per cent of control is 69%.

Q: And the kinase still bound, per cent of control [29]?
A: The kinase still bound, per cent of control was 100%.

Q: And the kinase still bound, per cent of control [30]?
A: The kinase still bound, per cent of control was 86%.

Q: What about the kinase still bound, per cent of control [31] of the same molecule?
A: Its kinase still bound, per cent of control is 94%.

Q: What about the kinase still bound, per cent of control [32] of the same molecule?
A: The kinase still bound, per cent of control was 98%.

Q: And the kinase still bound, per cent of control [33]?
A: The kinase still bound, per cent of control was 82%.

Q: What about the kinase still bound, per cent of control [34] of the same molecule?
A: The kinase still bound, per cent of control was 100%.

Q: And the kinase still bound, per cent of control [35]?
A: The kinase still bound, per cent of control was 99%.

Q: And the kinase still bound, per cent of control [36]?
A: The kinase still bound, per cent of control was 100%.

Q: And the kinase still bound, per cent of control [37]?
A: The kinase still bound, per cent of control was 88%.

Q: And the kinase still bound, per cent of control [38]?
A: Its kinase still bound, per cent of control is 100%.

Q: What about the kinase still bound, per cent of control [39] of the same molecule?
A: Its kinase still bound, per cent of control is 87%.
